Test results from PubChem BioAssay (NCI).
Where “and” joins values, the source holds several entries; their conditions need not be identical. Identical values can stand only once.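 48-hour exposure; five concentrations; linearly interpolated endpoints. The concentration for 50% growth inhibition is given as GI50. TGI denotes the concentration required for complete inhibition of growth.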

What was measured:
Test in all cases: inhibition of tumour cell growth, NCI panel, 48 h
[1] = tested on: TK-10 renal
[2] = tested on: UACC-62 melanoma
[3] = tested on: A498 renal
[4] = tested on: IGROV1 ovarian
[5] = tested on: OVCAR-8 ovarian
[6] = tested on: SK-MEL-2 melanoma
[7] = tested on: UACC-257 melanoma
[8] = tested on: MALME-3M melanoma
[9] = tested on: SN12C renal
[10] = tested on: HOP-62 NSCLC

| Structure (SMILES) | GI50 [1] | TGI [1] | TGI [2] | GI50 [3] | TGI [3] | GI50 [4] | TGI [4] | GI50 [5] | TGI [5] | GI50 [6] | TGI [6] | GI50 [7] | TGI [7] | GI50 [8] | TGI [8] | GI50 [2] | GI50 [9] | TGI [9] | GI50 [10] | TGI [10] |
| --- | --- | --- | --- | --- | --- | --- | --- | --- | --- | --- | --- | --- | --- | --- | --- | --- | --- | --- | --- | --- |
| O=C(O)CCCc1ccc(N(CCCl)CCCl)cc1 | 25.4 µM and 81.4 µM | 70.8 µM and 471 µM and 221 µM | 23.1 µM and 106 µM and 202 µM | 28.3 µM | 48.4 µM and 302 µM | 30.5 µM and 158 µM | 65.3 µM and 352 µM and 321 µM | 17.5 µM and 68 µM | 57.8 µM and 366 µM and 159 µM | 31.8 µM and 270 µM | 52 µM and 314 µM and 344 µM | 26 µM and 148 µM | 60.7 µM and 298 µM and 306 µM | 10.3 µM and 97.8 µM | 26.3 µM and 188 µM and 141 µM | – | – | – | – | – |
| CN(C)CCNc1nc2ccccc2c2[nH]c3ccccc3c12 | 0.429 µM | 1.95 µM | 3.55 µM | 5.32 µM | 11 µM | 0.97 µM | > 31.7 µM | 0.535 µM | 9.93 µM | 2.44 µM | 20.9 µM | 3.74 µM | 16.9 µM | – | – | 1.36 µM | 0.693 µM | 2.82 µM | 0.203 µM | 1.8 µM |
| O=c1[nH]c(=O)n(C2CC(O)C(CO)O2)cc1C#Cc1c(F)c(F)c(F)c(F)c1F (stereo not drawn) | – | – | > 100 µM | – | – | – | – | – | > 100 µM | – | > 100 µM | – | > 100 µM | – | > 100 µM | – | – | > 100 µM | – | > 100 µM |
| Cc1nc2nnc(C)n2c2c1C(=O)Nc1ccccc1N2 | – | > 100 µM | > 100 µM | – | – | – | > 100 µM | – | > 100 µM | – | > 100 µM | – | > 100 µM | – | > 100 µM | – | – | > 100 µM | – | > 100 µM |
| COc1cc2c(cc1O)[C@H](Cc1ccc(Oc3cc(C[C@H]4c5cc(OC)c(OC)cc5CCN4C)ccc3OC)cc1)NCC2 | – | – | 32.1 µM | – | 28.3 µM | – | 33 µM | – | 27.8 µM | – | 32.1 µM | – | 29.7 µM | – | 39.6 µM | – | – | 31.1 µM | – | – |
| COc1cc([C@@H]2c3cc4c(cc3[C@@H](NC(=O)c3cccc([N+](=O)[O-])c3)C3COC(=O)[C@@H]32)OCO4)cc(OC)c1O (stereo partly drawn) | – | 9.94 µM | 7.54 µM | – | – | – | > 37.4 µM | – | 7.06 µM | – | 7.23 µM | – | > 100 µM | – | 4.77 µM | – | – | 1.49 µM | – | 0.121 µM |
| O=C(O)/C=C/C(=O)Nc1ncn[nH]1 | – | > 100 µM | > 100 µM | – | > 100 µM | – | > 100 µM | – | > 100 µM | – | > 100 µM | – | > 100 µM | – | – | – | – | > 100 µM | – | > 100 µM |
| CCCNC(=O)OCc1c(COC(=O)NCCC)c(-c2ccc(Cl)c(Cl)c2)n2c1CCC2 | – | 18.9 µM | 13.3 µM | – | 3.24 µM | – | 5.54 µM | – | 16.9 µM | – | – | – | 20.1 µM | – | 9.72 µM | – | – | 19.4 µM | – | 22.3 µM |
| COc1cc2c(cc1OC)C1C=NC(C(=O)O)(C2)c2ccccc21 (stereo not drawn) | – | > 100 µM | > 100 µM | – | > 100 µM | – | > 100 µM | – | > 100 µM | – | – | – | > 100 µM | – | > 100 µM | – | – | > 100 µM | – | > 100 µM |
| COc1ccc(/C=C(/C(=O)O)c2cc(OC)c(OC)c(OC)c2)cc1 | – | – | > 100 µM | – | > 100 µM | – | > 100 µM | – | > 100 µM | – | > 100 µM | – | > 100 µM | – | > 100 µM | – | – | > 100 µM | – | > 100 µM |
| S=C1NCCN1C1=Nc2ccccc2CO1 | > 100 µM | > 100 µM | > 100 µM | – | – | 74 µM | > 100 µM | > 100 µM | > 100 µM | – | – | > 100 µM | > 100 µM | > 100 µM | > 100 µM | > 100 µM | > 100 µM | > 100 µM | > 100 µM | > 100 µM |
| CCOC(=O)CCCO | – | > 100 µM | > 100 µM | – | > 100 µM | – | > 100 µM | – | > 100 µM | – | > 100 µM | – | > 100 µM | – | > 100 µM | – | – | > 100 µM | – | – |
| OCc1c(-c2cccc3ccccc23)sc(-c2cccc3ccccc23)c1CO | – | 26.9 µM | 23.5 µM | – | – | – | 28 µM | – | 25.7 µM | – | 28.2 µM | – | 25.6 µM | – | 24.5 µM | – | – | 26.8 µM | – | 26.3 µM |
| c1ccc(-c2nnc(-c3nn(-c4ccccc4)c4nc5ccccc5nc34)o2)cc1 | – | > 100 µM | > 100 µM | – | – | – | > 100 µM | – | > 100 µM | – | > 100 µM | – | > 100 µM | – | > 100 µM | – | – | > 100 µM | – | > 100 µM |
| COC(=O)C(CC(=O)c1cc2c(cc1I)OCO2)Cc1cc(OC)c(OC)c(OC)c1I (stereo not drawn) | – | > 100 µM | > 100 µM | – | – | – | > 100 µM | – | > 100 µM | – | > 100 µM | – | > 100 µM | – | > 100 µM | – | – | > 100 µM | – | > 100 µM |
| O=C1c2ccccc2-c2c1c1cc3c(cc1c(=O)n2CCCCl)OCO3 | 30.9 µM | 75.2 µM | > 100 µM | 59.8 µM | > 100 µM | – | – | 22.6 µM | > 100 µM | > 100 µM | > 100 µM | – | – | – | – | 30.5 µM | 21.8 µM | 77.6 µM | 12.3 µM | 28.6 µM |
